In the NIST ThermoML archive (doi:10.1021/je900660x):
± gives the expanded uncertainty stated by the source.

What was measured:
[1] = for mass density / viscosity / thermal conductivity: 101.33 kPa, Liquid; for mass density: Vibrating tube method; for thermal conductivity: Hot wire method; for Glass transition temperature: DTA
[2] = molar heat capacity at constant pressure; settings: 101.33 kPa, Liquid, Large sample (1 g) DSC

Structure (SMILES)	mass density ([1]; 293.15 K)	viscosity ([1]; 298.15 K)	mass density ([1]; 298.15 K)	viscosity ([1]; 303.15 K)	mass density ([1]; 303.15 K)	viscosity ([1]; 313.15 K)	mass density ([1]; 313.15 K)	viscosity ([1]; 323.15 K)	mass density ([1]; 323.15 K)	viscosity ([1]; 333.15 K)	mass density ([1]; 333.15 K)	viscosity ([1]; 343.15 K)	mass density ([1]; 343.15 K)	viscosity ([1]; 353.15 K)	mass density ([1]; 353.15 K)	viscosity ([1]; 363.15 K)	mass density ([1]; 363.15 K)	Glass transition temperature [1]	molar heat capacity at constant pressure ([2]; 293.15 K)	molar heat capacity at constant pressure ([2]; 298.15 K)	further results
CCCC[N+](C)(CCCC)CCCC.NCCCC[C@H](N)C(=O)[O-] [N,N-dibutyl-N-methyl-1-butanaminium L-lysinate]	982.9 ± 5.2 kg/m3	2593 ± 690 mPa·s	979.7 ± 5.2 kg/m3	1679 ± 400 mPa·s	976.7 ± 5.2 kg/m3	741.4 ± 140 mPa·s	970.7 ± 5.1 kg/m3	368.6 ± 51 mPa·s	964.7 ± 5 kg/m3	200.2 ± 20 mPa·s	958.6 ± 5 kg/m3	112.9 ± 6.9 mPa·s	952.7 ± 4.9 kg/m3	68.3 ± 2.3 mPa·s	946.8 ± 4.9 kg/m3	43.9 ± 1.3 mPa·s	940.8 ± 4.8 kg/m3	-59.39 ± 4 °C	817.3 ± 82 J/K/mol	823.8 ± 83 J/K/mol	thermal conductivity ([1]; 298.15 K): 0.171 ± 0.01 W/m/K; thermal conductivity ([1]; 303.15 K): 0.17 ± 0.01 W/m/K; thermal conductivity ([1]; 313.15 K): 0.169 ± 0.01 W/m/K; thermal conductivity ([1]; 323.15 K): 0.168 ± 0.01 W/m/K; thermal conductivity ([1]; 333.15 K): 0.167 ± 0.01 W/m/K; thermal conductivity ([1]; 343.15 K): 0.166 ± 0.01 W/m/K; thermal conductivity ([1]; 353.15 K): 0.165 ± 0.01 W/m/K; molar heat capacity at constant pressure ([2]; 303.15 K): 830.8 ± 84 J/K/mol; molar heat capacity at constant pressure ([2]; 313.15 K): 845.6 ± 85 J/K/mol; molar heat capacity at constant pressure ([2]; 323.15 K): 861.2 ± 87 J/K/mol; molar heat capacity at constant pressure ([2]; 333.15 K): 877.7 ± 89 J/K/mol; molar heat capacity at constant pressure ([2]; 343.15 K): 893.3 ± 90 J/K/mol; molar heat capacity at constant pressure ([2]; 353.15 K): 909.5 ± 92 J/K/mol; molar heat capacity at constant pressure ([2]; 363.15 K): 925.1 ± 93 J/K/mol
CCCC[P+](CCCC)(CCCC)CCCC.N[C@@H](CS)C(=O)[O-] [tetrabutylphosphonium L-cysteinate]	1037.2 ± 5.8 kg/m3	2946 ± 810 mPa·s	1033.7 ± 5.8 kg/m3	1866 ± 460 mPa·s	1030 ± 5.7 kg/m3	832.7 ± 160 mPa·s	1023.8 ± 5.7 kg/m3	397.4 ± 57 mPa·s	1017.8 ± 5.6 kg/m3	208.4 ± 21 mPa·s	1011.7 ± 5.5 kg/m3	118.3 ± 7.6 mPa·s	1005.4 ± 5.5 kg/m3	72.5 ± 2.6 mPa·s	999.1 ± 5.4 kg/m3	46.6 ± 1.4 mPa·s	993 ± 5.3 kg/m3	-29.68 ± 4 °C	913.7 ± 92 J/K/mol	919.8 ± 93 J/K/mol	thermal conductivity ([1]; 298.15 K): 0.152 ± 0.01 W/m/K; thermal conductivity ([1]; 303.15 K): 0.151 ± 0.01 W/m/K; thermal conductivity ([1]; 313.15 K): 0.15 ± 0.01 W/m/K; thermal conductivity ([1]; 323.15 K): 0.149 ± 0.01 W/m/K; thermal conductivity ([1]; 333.15 K): 0.148 ± 0.01 W/m/K; thermal conductivity ([1]; 343.15 K): 0.147 ± 0.01 W/m/K; thermal conductivity ([1]; 353.15 K): 0.146 ± 0.01 W/m/K; molar heat capacity at constant pressure ([2]; 303.15 K): 926.6 ± 94 J/K/mol; molar heat capacity at constant pressure ([2]; 313.15 K): 942.5 ± 95 J/K/mol; molar heat capacity at constant pressure ([2]; 323.15 K): 959.6 ± 97 J/K/mol; molar heat capacity at constant pressure ([2]; 333.15 K): 977.1 ± 99 J/K/mol; molar heat capacity at constant pressure ([2]; 343.15 K): 993.4 ± 100 J/K/mol; molar heat capacity at constant pressure ([2]; 353.15 K): 1008.2 ± 100 J/K/mol; molar heat capacity at constant pressure ([2]; 363.15 K): 1021.5 ± 100 J/K/mol
CCCC[N+](C)(CCCC)CCCC.NCCS(=O)(=O)[O-] [N,N-dibutyl-N-methyl-1-butanaminium 2-aminoethanesulfonate]	1054.1 ± 6 kg/m3	6674 ± 2200 mPa·s	1051.1 ± 6 kg/m3	3965 ± 1200 mPa·s	1048.1 ± 5.9 kg/m3	1600 ± 380 mPa·s	1041.6 ± 5.9 kg/m3	716 ± 130 mPa·s	1035.7 ± 5.8 kg/m3	357.5 ± 48 mPa·s	1029.8 ± 5.7 kg/m3	193.4 ± 18 mPa·s	1023.9 ± 5.7 kg/m3	108.2 ± 6.3 mPa·s	1018 ± 5.6 kg/m3	66.8 ± 2.1 mPa·s	1012.1 ± 5.5 kg/m3	-54.23 ± 4 °C	822.3 ± 83 J/K/mol	826.9 ± 84 J/K/mol	molar heat capacity at constant pressure ([2]; 303.15 K): 831.7 ± 84 J/K/mol; molar heat capacity at constant pressure ([2]; 313.15 K): 842.5 ± 85 J/K/mol; molar heat capacity at constant pressure ([2]; 323.15 K): 853.2 ± 86 J/K/mol; molar heat capacity at constant pressure ([2]; 333.15 K): 863.2 ± 87 J/K/mol; molar heat capacity at constant pressure ([2]; 343.15 K): 872.6 ± 88 J/K/mol; molar heat capacity at constant pressure ([2]; 353.15 K): 882.4 ± 89 J/K/mol; molar heat capacity at constant pressure ([2]; 363.15 K): 891.5 ± 90 J/K/mol
CCCC[N+](C)(CCCC)CCCC.N[C@@H](CO)C(=O)[O-] [N,N-dibutyl-N-methylbutanaminium L-serinate]	1018.8 ± 5.6 kg/m3	10214 ± 3700 mPa·s	1015.7 ± 5.6 kg/m3	5845 ± 1900 mPa·s	1012.6 ± 5.5 kg/m3	2160 ± 550 mPa·s	1006.3 ± 5.5 kg/m3	890.7 ± 170 mPa·s	999.9 ± 5.4 kg/m3	410.3 ± 59 mPa·s	993.9 ± 5.3 kg/m3	207.9 ± 21 mPa·s	987.9 ± 5.3 kg/m3	111.8 ± 6.8 mPa·s	981.9 ± 5.2 kg/m3	64.3 ± 2 mPa·s	975.6 ± 5.1 kg/m3	-50.59 ± 4 °C	632.4 ± 64 J/K/mol	634.8 ± 64 J/K/mol	thermal conductivity ([1]; 298.15 K): 0.169 ± 0.01 W/m/K; thermal conductivity ([1]; 303.15 K): 0.168 ± 0.01 W/m/K; thermal conductivity ([1]; 313.15 K): 0.167 ± 0.01 W/m/K; thermal conductivity ([1]; 323.15 K): 0.166 ± 0.01 W/m/K; thermal conductivity ([1]; 333.15 K): 0.165 ± 0.01 W/m/K; thermal conductivity ([1]; 343.15 K): 0.164 ± 0.01 W/m/K; thermal conductivity ([1]; 353.15 K): 0.163 ± 0.01 W/m/K; molar heat capacity at constant pressure ([2]; 303.15 K): 637.6 ± 64 J/K/mol; molar heat capacity at constant pressure ([2]; 313.15 K): 643.6 ± 65 J/K/mol; molar heat capacity at constant pressure ([2]; 323.15 K): 651 ± 66 J/K/mol; molar heat capacity at constant pressure ([2]; 333.15 K): 658 ± 66 J/K/mol; molar heat capacity at constant pressure ([2]; 343.15 K): 665 ± 67 J/K/mol; molar heat capacity at constant pressure ([2]; 353.15 K): 672.9 ± 68 J/K/mol; molar heat capacity at constant pressure ([2]; 363.15 K): 680.8 ± 69 J/K/mol
CCCC[P+](CCCC)(CCCC)CCCC.O=C([O-])[C@@H]1CCCN1 [tetrabutylphosphonium L-prolinate]	995.7 ± 5.4 kg/m3	1695 ± 400 mPa·s	992.5 ± 5.3 kg/m3	1101 ± 230 mPa·s	989.1 ± 5.3 kg/m3	483.5 ± 75 mPa·s	983 ± 5.2 kg/m3	241.3 ± 26 mPa·s	976.9 ± 5.2 kg/m3	133.1 ± 9.5 mPa·s	970.8 ± 5.1 kg/m3	78.2 ± 3.1 mPa·s	964.6 ± 5 kg/m3	49.6 ± 1.5 mPa·s	958.6 ± 5 kg/m3	32.2 ± 1 mPa·s	952.6 ± 4.9 kg/m3	-65.87 ± 4 °C	838 ± 85 J/K/mol	844.2 ± 85 J/K/mol	thermal conductivity ([1]; 298.15 K): 0.154 ± 0.01 W/m/K; thermal conductivity ([1]; 303.15 K): 0.153 ± 0.01 W/m/K; thermal conductivity ([1]; 313.15 K): 0.152 ± 0.01 W/m/K; thermal conductivity ([1]; 323.15 K): 0.151 ± 0.01 W/m/K; thermal conductivity ([1]; 333.15 K): 0.15 ± 0.01 W/m/K; thermal conductivity ([1]; 343.15 K): 0.149 ± 0.01 W/m/K; thermal conductivity ([1]; 353.15 K): 0.148 ± 0.01 W/m/K; molar heat capacity at constant pressure ([2]; 303.15 K): 850.4 ± 86 J/K/mol; molar heat capacity at constant pressure ([2]; 313.15 K): 864.1 ± 87 J/K/mol; molar heat capacity at constant pressure ([2]; 323.15 K): 879.7 ± 89 J/K/mol; molar heat capacity at constant pressure ([2]; 333.15 K): 894.8 ± 90 J/K/mol; molar heat capacity at constant pressure ([2]; 343.15 K): 910.1 ± 92 J/K/mol; molar heat capacity at constant pressure ([2]; 353.15 K): 925.8 ± 94 J/K/mol; molar heat capacity at constant pressure ([2]; 363.15 K): 939.4 ± 95 J/K/mol
